Reference: ChEMBL document CHEMBL4387706, “Discovery of Novel Spiroindoline Derivatives as Selective Tankyrase Inhibitors” (J Med Chem, 2019)
Calls of active or inactive are those of the source. The calls are words filed in the database; no cut-off is given here.

Key:
Tankyrase 1/2 = biological target: T1, Tankyrase 1/2 (Homo sapiens, UniProt Q9H2K2+O95271); settings: hek293
T1 sequence (Q9H2K2 whole entry): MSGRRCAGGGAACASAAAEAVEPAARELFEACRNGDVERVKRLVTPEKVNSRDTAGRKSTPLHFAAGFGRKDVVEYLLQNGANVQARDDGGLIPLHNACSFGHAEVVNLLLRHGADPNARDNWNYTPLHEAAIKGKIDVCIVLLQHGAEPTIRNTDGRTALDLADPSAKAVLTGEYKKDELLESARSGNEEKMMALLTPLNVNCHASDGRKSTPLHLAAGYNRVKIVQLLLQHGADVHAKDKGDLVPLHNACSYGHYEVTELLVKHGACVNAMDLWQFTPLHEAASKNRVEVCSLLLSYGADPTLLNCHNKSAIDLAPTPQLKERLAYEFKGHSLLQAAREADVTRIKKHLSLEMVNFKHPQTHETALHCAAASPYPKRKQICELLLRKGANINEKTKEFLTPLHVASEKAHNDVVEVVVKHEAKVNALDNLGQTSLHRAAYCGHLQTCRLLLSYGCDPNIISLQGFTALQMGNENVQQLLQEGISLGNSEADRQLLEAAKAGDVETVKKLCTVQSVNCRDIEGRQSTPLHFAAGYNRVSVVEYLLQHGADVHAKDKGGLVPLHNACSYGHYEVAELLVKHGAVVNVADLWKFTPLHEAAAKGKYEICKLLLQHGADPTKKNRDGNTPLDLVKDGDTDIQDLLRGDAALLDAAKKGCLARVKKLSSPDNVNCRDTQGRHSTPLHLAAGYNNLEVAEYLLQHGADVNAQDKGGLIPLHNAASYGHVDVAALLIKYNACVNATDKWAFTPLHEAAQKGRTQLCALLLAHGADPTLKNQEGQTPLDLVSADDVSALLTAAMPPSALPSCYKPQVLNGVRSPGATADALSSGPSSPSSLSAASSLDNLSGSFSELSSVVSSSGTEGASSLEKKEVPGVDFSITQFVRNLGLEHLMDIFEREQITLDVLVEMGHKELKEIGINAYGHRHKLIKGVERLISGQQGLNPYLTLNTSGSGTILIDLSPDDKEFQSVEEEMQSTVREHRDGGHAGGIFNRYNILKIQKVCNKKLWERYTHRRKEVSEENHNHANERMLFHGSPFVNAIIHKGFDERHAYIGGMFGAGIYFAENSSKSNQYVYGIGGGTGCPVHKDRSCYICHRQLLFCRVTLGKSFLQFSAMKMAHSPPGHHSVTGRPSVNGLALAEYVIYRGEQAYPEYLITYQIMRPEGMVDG
T1 sequence (O95271 whole entry): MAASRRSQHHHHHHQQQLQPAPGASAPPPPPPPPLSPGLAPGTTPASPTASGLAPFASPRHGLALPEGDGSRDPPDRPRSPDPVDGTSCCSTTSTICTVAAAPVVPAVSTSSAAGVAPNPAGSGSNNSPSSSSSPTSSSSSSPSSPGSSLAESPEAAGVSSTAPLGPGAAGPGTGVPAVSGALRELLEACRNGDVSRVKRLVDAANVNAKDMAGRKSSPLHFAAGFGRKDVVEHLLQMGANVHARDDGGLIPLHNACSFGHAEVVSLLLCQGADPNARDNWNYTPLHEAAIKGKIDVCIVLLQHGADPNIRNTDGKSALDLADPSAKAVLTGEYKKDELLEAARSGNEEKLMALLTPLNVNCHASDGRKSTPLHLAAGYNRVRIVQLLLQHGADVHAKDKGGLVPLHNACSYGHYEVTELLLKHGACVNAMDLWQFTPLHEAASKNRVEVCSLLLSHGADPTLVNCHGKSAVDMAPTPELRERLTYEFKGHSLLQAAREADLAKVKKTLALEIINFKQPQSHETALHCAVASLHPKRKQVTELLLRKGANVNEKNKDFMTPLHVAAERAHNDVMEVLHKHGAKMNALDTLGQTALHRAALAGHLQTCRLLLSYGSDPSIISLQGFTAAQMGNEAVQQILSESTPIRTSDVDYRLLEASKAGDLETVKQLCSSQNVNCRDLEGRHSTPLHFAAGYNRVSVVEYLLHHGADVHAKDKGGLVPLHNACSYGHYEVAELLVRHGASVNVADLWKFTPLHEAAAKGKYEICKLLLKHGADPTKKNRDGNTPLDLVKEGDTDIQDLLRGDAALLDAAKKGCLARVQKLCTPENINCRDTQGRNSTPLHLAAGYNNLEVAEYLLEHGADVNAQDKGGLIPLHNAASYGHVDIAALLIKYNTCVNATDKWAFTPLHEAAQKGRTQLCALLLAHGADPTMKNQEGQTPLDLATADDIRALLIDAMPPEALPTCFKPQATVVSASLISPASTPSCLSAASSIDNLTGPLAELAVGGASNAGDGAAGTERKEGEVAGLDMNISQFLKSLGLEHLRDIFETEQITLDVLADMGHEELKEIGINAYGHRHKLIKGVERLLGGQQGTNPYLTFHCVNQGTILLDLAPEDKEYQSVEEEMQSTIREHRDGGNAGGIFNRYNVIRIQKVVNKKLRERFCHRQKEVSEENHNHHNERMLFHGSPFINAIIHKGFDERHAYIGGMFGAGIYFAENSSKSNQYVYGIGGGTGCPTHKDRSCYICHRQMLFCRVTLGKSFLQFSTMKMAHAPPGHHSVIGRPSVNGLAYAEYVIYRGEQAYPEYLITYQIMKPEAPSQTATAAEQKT
Description: Inhibition of TNKS/TNKS2 (unknown origin) expressed in HEK293 cells assessed as reduction in Wnt-signaling measured after 24 hrs by TCF-luciferase reporter gene assay

[1] = biological target: T2, Poly [ADP-ribose] polymerase tankyrase-1 (Homo sapiens, UniProt O95271)
T2 sequence (O95271 whole entry): T1 sequence (O95271 whole entry)
Description: Inhibition of recombinant human N-terminal TEV cleavage site-fused/FLAG-poly his-tagged TNKS SAM-PARP domain (1024 to 1327 residues) expressed in Escherichia coli assessed as reduction in auto-PARylation preincubated for 10 mins followed by biotinylated-NAD+ addition and measured after 45 mins by ELISA

[2] = biological target: Muscarinic acetylcholine receptor M2 (Homo sapiens) (UniProt P08172); experiment: Displacement of [3H]N-Methylscopolamine from full-length recombinant human M2 receptor expressed in CHOK1 cells at 10 uM measured after 120 mins by scintillation counting method relative to control; type: cell-based
[3] = biological target: D(1A) dopamine receptor (Homo sapiens) (UniProt P21728); experiment: Displacement of [3H]SCH-23390 from full-length recombinant human D1 receptor expressed in CHO cells at 10 uM measured after 120 mins by scintillation counting method relative to control; type: cell-based
Homo sapiens = species: Homo sapiens; experiment: Effect on hippo signaling protein in human COLO320DM cells assessed as change in CTGF expression at 0.033 to 1 uM measured after 48 hrs by RT-PCR analysis; type: cell-based
[4] = biological target: cGMP-inhibited 3',5'-cyclic phosphodiesterase 3A (Homo sapiens) (UniProt Q14432); experiment: Inhibition of full-length recombinant human PDE3A at 10 uM using FAM-cAMP as substrate measured after 30 mins by spectrofluorimetric method relative to control
[5] = biological target: Cholecystokinin receptor type A (Homo sapiens) (UniProt P32238); experiment: Displacement of [125I]CCK8 from full-length recombinant human CCK1 receptor expressed in human 1321N1 cells at 10 uM measured after 3 hrs by scintillation counting method relative to control; type: cell-based
Cholecystokinin receptor type A (Homo sapiens), sequence (P32238 whole entry): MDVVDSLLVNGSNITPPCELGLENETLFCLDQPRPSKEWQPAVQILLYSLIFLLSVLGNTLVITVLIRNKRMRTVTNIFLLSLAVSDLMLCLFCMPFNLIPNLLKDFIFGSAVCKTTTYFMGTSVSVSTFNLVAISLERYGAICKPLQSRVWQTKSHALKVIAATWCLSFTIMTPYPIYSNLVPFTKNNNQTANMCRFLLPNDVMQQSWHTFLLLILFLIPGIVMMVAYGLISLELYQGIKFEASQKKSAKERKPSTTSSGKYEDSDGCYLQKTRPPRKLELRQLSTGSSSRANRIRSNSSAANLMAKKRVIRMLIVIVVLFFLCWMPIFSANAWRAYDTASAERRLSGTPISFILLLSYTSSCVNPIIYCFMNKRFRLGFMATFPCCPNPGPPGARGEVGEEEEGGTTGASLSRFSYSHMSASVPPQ

D(1A) dopamine receptor (Homo sapiens), sequence (P21728 whole entry): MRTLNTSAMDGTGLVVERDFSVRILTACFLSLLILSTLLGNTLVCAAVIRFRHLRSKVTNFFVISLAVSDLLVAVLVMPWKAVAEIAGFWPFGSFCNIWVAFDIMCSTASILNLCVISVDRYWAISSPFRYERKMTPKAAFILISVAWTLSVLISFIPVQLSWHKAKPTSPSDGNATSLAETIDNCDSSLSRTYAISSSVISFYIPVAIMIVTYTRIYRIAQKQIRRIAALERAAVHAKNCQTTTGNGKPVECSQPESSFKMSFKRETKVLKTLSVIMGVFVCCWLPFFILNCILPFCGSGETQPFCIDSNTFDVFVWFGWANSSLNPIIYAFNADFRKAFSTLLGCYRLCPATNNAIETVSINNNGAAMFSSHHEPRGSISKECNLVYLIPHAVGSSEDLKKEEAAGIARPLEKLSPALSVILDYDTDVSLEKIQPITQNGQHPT
Muscarinic acetylcholine receptor M2 (Homo sapiens), sequence (P08172 whole entry): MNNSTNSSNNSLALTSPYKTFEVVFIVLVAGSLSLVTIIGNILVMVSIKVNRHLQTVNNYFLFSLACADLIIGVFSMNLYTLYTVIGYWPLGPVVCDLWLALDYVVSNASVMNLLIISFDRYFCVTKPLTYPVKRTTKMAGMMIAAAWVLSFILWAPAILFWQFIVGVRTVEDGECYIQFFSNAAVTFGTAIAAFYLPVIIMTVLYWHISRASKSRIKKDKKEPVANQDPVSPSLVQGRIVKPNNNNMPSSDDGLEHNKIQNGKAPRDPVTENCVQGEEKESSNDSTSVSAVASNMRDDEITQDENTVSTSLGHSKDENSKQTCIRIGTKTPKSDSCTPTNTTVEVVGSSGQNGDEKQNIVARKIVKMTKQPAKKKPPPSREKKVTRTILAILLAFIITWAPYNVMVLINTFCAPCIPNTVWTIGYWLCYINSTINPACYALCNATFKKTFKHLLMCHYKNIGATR
cGMP-inhibited 3',5'-cyclic phosphodiesterase 3A (Homo sapiens), sequence (Q14432 whole entry): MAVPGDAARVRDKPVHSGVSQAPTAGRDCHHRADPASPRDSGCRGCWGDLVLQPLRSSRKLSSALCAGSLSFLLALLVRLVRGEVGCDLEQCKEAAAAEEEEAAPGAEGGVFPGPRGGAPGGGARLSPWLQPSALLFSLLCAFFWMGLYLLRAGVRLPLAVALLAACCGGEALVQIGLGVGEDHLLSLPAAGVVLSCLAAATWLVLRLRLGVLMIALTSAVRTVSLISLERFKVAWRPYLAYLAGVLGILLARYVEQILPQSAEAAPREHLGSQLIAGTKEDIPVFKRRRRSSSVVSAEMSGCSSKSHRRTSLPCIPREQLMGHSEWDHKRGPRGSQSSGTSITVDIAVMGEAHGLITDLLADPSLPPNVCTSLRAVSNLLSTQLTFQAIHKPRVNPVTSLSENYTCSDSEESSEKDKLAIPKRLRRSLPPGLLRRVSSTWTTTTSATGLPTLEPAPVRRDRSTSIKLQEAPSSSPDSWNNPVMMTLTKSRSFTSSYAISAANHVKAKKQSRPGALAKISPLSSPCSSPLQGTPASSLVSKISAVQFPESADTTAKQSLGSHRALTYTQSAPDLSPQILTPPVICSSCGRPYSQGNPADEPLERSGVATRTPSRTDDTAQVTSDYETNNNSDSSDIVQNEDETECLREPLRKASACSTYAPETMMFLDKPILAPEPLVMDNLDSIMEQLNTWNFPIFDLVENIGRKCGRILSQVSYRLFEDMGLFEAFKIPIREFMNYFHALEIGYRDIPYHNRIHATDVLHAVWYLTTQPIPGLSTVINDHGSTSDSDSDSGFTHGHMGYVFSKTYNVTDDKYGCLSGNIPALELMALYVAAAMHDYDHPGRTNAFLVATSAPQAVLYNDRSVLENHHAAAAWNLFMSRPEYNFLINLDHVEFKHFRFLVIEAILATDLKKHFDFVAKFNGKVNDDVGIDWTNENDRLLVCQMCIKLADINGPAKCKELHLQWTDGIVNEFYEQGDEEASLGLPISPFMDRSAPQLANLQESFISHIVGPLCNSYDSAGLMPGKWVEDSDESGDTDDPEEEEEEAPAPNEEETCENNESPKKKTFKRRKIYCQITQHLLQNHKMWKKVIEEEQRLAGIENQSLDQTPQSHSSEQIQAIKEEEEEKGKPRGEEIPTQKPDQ

With `COc1ccccc1N1CCN(c2nc3c(c(=O)[nH]2)CCCC3)CC1` the IC50 (Tankyrase 1/2) was 42.9 nM and the IC50 [1] was 20.5 nM.
In the case of `O=c1[nH]c(N2CCC3(CC2)CN(CCO)c2cc(F)cc(F)c23)nc2c1CCCC2`, the inhibition [2] is reported as greater than 20%, the inhibition [3] is reported as greater than 20% and the Activity (Homo sapiens) is reported as “inactive”. The inhibition [4] was greater than 20% and the inhibition [5] was greater than 20%.
